From publication PMC4505863 (ACS Chemical Neuroscience, 2014)

Key:
human 5-HT2C receptor [1] = target: T1, human 5-HT2C receptor (Homo sapiens, UniProt P28335); test: h5-HT2C affinity, agonist radioligand [125I]DOI; type: binding
T1 sequence (P28335 33-458): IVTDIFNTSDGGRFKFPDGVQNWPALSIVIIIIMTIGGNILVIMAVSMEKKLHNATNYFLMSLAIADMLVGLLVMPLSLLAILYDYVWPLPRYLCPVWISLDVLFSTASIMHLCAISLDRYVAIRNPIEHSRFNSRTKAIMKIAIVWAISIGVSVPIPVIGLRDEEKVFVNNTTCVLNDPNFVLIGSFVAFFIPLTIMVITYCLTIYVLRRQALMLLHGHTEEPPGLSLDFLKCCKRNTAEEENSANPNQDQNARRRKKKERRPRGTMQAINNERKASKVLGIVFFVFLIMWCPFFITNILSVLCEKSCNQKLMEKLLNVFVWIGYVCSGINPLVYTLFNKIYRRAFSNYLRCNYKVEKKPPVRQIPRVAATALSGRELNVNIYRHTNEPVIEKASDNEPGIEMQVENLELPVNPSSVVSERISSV

5-HT2B = 5-HT2B (Homo sapiens, UniProt P41595); test: PDSP screening affinity 5-HT2B; type: binding
Sequence of 5-HT2B (P41595 whole entry): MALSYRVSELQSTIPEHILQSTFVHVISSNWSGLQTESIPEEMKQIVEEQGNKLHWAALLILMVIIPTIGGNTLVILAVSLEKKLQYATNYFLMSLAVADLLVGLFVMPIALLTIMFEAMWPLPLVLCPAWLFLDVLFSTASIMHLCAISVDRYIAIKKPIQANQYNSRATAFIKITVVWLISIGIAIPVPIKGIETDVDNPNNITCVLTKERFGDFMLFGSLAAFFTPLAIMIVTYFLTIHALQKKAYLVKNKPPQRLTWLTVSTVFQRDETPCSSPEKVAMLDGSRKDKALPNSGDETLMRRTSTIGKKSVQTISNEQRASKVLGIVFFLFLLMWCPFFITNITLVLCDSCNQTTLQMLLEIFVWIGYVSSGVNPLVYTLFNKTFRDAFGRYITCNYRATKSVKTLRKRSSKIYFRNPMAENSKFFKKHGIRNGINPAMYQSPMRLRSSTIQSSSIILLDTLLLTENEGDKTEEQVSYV

h5-HT2A = h5-HT2A (Homo sapiens, UniProt P28223); test: Ca2+ mobilization assay; type: cell-based; conditions: for Emax: HEK293, read-out: h5-HT2A Emax, percentage of the maximum response to 5-HT
Sequence of h5-HT2A (P28223 whole entry): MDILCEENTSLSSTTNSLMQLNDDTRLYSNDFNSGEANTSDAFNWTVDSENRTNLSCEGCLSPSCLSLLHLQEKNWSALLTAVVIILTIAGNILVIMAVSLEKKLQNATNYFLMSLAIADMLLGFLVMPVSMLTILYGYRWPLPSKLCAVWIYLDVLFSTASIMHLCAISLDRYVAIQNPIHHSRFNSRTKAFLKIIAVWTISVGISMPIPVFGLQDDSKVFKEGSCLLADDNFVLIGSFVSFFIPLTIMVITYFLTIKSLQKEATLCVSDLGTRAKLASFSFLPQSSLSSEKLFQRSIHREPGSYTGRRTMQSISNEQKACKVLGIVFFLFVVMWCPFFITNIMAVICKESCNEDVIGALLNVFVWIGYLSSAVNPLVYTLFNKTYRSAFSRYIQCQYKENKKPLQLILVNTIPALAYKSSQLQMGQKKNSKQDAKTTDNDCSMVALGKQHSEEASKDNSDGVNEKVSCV

human 5-HT2C receptor [2] = target: T1, human 5-HT2C receptor; test: h5-HT2C affinity, antagonist radioligand [3H]mesulergine; type: binding
5-HT3 = target: T2, 5-HT3 (Homo sapiens, UniProt P46098); test: PDSP screening affinity 5-HT3; type: binding
T2 sequence (P46098 24-478): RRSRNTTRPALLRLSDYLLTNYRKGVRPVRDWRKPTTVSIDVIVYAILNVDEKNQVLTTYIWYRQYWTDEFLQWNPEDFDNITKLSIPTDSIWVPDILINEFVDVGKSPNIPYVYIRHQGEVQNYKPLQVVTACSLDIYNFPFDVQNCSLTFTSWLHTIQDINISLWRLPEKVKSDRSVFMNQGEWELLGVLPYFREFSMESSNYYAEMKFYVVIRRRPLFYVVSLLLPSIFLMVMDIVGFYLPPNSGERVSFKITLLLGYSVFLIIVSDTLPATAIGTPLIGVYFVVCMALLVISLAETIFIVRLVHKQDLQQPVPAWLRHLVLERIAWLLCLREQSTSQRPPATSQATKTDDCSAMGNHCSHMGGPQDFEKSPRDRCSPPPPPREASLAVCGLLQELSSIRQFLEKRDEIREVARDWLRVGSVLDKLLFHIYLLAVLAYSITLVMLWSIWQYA

5-HT6 = 5-HT6 (Homo sapiens, UniProt P50406); test: PDSP screening affinity 5-HT6; type: binding
Sequence of 5-HT6 (P50406 whole entry): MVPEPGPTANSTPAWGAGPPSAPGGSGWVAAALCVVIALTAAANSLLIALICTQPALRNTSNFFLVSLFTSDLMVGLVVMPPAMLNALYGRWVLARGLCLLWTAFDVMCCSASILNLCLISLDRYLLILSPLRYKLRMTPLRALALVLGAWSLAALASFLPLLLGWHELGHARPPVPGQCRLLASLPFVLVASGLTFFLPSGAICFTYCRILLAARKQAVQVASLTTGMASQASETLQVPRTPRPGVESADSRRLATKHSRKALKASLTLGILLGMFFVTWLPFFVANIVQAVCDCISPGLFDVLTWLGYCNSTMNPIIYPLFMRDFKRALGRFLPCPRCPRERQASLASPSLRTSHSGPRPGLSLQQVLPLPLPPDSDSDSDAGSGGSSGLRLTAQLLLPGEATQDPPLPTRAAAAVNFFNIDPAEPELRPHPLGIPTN

h5-HT2C = target: T3, h5-HT2C (Homo sapiens, UniProt P28335); test: Ca2+ mobilization assay; type: cell-based; conditions: for Emax: HEK293, read-out: h5HT2C Emax; for EC50: h5HT2C EC50, Ca2+ mobilization
T3 sequence (P28335 33-458): T1 sequence (P28335 33-458)

5-ht5a = 5-ht5a (Homo sapiens, UniProt P47898); test: PDSP screening affinity 5-ht5a; type: binding; conditions: 5-ht5a affinity
Sequence of 5-ht5a (P47898 whole entry): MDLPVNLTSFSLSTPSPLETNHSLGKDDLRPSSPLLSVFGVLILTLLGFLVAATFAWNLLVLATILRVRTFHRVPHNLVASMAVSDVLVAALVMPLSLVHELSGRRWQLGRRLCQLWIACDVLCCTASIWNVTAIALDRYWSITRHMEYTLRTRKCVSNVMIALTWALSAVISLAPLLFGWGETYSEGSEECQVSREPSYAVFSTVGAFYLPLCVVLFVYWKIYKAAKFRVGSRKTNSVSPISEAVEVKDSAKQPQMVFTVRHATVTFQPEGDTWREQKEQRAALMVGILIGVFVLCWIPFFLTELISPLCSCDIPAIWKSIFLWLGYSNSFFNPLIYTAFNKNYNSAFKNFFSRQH

5-HT2A receptor [3] = target: T4, 5-HT2A receptor (Homo sapiens, UniProt P28223); test: h5-HT2A affinity, agonist radioligand [125I]DOI; type: binding
T4 sequence (P28223 whole entry): as the sequence (P28223 whole entry) above

5-HT1A = target: T5, 5-HT1A (Homo sapiens, UniProt P08908); test: PDSP screening affinity 5-HT1A; type: binding; conditions: 5-HT1A affinity
T5 sequence (P08908 1-422): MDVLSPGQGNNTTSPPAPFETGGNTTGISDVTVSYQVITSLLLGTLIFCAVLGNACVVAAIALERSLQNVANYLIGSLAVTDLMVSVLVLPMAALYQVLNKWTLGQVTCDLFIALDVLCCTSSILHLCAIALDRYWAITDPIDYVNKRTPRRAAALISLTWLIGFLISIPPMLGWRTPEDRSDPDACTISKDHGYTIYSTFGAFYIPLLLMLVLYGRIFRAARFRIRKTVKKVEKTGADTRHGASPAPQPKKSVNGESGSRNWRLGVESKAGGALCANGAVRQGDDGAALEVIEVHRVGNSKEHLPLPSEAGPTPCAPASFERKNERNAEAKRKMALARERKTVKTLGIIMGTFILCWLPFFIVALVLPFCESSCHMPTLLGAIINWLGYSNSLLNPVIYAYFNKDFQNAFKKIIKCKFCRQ

r5-HT2C = target: T6, r5-HT2C (Rattus norvegicus, UniProt P08909); test: Ca2+ mobilization assay; type: cell-based; conditions: for Emax: read-out: r5-HT2C Emax
T6 sequence (P08909 33-460): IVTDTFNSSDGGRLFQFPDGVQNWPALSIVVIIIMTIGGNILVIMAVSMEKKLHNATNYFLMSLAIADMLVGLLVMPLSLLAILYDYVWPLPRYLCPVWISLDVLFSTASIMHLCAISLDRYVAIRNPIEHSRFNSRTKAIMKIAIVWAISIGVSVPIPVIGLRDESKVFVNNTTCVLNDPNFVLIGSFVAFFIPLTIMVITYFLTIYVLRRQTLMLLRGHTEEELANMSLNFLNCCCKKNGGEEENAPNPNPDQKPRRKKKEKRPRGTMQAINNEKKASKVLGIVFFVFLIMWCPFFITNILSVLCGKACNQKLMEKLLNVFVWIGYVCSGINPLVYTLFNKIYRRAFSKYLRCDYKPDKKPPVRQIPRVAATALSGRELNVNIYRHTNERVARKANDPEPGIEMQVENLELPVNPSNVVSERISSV

r5-HT2A = r5-HT2A (Rattus norvegicus, UniProt P14842); test: Ca2+ mobilization assay; type: cell-based; conditions: for EC50: r5-HT2A EC50, Ca2+ mobilization; for Emax: read-out: r5-HT2A Emax, percentage of the maximum response to 5-HT
Sequence of r5-HT2A (P14842 whole entry): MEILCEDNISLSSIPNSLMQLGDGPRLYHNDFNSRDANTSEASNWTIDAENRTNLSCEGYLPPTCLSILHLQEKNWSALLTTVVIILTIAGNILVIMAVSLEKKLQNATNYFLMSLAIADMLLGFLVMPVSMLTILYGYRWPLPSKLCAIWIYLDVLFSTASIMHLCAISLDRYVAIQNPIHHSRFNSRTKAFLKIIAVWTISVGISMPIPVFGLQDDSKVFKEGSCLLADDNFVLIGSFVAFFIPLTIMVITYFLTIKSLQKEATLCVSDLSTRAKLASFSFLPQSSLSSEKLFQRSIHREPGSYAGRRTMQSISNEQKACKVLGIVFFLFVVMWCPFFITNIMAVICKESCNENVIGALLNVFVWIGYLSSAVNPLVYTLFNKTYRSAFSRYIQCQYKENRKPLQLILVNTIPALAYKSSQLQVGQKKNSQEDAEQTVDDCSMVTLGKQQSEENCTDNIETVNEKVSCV

5-ht1e = 5-ht1e (Homo sapiens, UniProt P28566); test: PDSP screening affinity 5-ht1e; type: binding
Sequence of 5-ht1e (P28566 whole entry): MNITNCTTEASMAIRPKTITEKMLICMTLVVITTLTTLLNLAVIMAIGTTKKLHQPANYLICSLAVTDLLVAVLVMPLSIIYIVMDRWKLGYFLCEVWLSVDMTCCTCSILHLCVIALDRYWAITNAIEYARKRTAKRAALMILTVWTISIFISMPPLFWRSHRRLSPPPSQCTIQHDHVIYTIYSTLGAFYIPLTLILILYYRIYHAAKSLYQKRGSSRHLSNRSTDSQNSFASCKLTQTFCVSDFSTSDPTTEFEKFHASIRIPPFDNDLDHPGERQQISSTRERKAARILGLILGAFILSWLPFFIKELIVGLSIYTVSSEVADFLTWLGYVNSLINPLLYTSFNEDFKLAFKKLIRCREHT

5-HT1B = 5-HT1B (Homo sapiens, UniProt P28222); test: PDSP screening affinity 5-HT1B; type: binding; conditions: 5-HT1B affinity
Sequence of 5-HT1B (P28222 whole entry): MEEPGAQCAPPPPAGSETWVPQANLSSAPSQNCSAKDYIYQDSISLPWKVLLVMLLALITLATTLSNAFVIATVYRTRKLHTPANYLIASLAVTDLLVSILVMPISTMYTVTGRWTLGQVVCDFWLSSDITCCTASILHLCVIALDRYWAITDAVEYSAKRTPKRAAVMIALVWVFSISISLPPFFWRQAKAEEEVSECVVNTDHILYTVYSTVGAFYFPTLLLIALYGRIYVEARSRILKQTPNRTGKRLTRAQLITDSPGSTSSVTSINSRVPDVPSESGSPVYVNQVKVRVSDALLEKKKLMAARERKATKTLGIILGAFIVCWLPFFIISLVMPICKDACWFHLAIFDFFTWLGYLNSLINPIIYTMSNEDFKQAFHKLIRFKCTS

5-HT1D = 5-HT1D (Homo sapiens, UniProt P28221); test: PDSP screening affinity 5-HT1D; type: binding
Sequence of 5-HT1D (P28221 whole entry): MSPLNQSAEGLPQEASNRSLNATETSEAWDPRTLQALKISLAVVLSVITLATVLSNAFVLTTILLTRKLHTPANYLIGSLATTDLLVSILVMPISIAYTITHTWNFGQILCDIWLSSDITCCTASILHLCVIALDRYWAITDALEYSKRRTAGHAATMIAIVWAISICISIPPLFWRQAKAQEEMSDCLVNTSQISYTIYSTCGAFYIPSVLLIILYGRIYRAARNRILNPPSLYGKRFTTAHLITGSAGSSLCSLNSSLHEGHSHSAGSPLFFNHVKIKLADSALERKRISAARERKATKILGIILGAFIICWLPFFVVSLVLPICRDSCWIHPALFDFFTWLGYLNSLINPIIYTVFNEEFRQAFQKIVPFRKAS

5-HT2A receptor [4] = target: T4, 5-HT2A receptor; test: h5-HT2A affinity, antagonist radioligand [3H]ketanserin; type: binding
5-HT7 = 5-HT7 (Homo sapiens, UniProt P34969); test: PDSP screening affinity 5-HT7; type: binding
Sequence of 5-HT7 (P34969 whole entry): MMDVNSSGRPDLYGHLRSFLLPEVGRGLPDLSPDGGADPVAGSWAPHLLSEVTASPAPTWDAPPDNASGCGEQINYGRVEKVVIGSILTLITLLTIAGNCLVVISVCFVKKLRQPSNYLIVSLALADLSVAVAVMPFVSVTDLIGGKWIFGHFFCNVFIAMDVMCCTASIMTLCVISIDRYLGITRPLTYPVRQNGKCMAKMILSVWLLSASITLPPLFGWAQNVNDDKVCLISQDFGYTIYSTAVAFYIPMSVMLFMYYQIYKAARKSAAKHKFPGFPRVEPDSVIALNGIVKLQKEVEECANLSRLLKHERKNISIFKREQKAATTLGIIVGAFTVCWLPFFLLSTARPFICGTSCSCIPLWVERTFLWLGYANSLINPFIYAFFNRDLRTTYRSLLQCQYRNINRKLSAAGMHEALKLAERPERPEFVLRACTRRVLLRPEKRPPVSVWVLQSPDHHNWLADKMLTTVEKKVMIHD

h5-HT2B = h5-HT2B (Homo sapiens, UniProt P41595); test: Ca2+ mobilization assay; type: cell-based; conditions: for Emax: HEK293, read-out: h5-HT2B Emax; for EC50: h5-HT2B EC50, Ca2+ mobilization
Sequence of h5-HT2B (P41595 whole entry): as the sequence (P41595 whole entry) above

Male C57BL/6J mice = test: Mouse head twitch response
[5] = r5-HT2C EC50, Ca2+ mobilization

Row | SMILES | Ki (human 5-HT2C receptor [1]) [nM] | Ki (5-HT2B; 5-HT2B pKi ± SEM) [nM] | EC50 (h5-HT2A) [nM] | Emax (h5-HT2A) [%] | Ki (5-HT3) [nM] | Ki (5-HT6; 5-HT6 affinity) [nM] | Emax (h5-HT2C) [%] | EC50 (h5-HT2C) [nM] | Ki (5-ht5a) [nM] | Ki (5-HT2A receptor [3]) [nM] | Ki (5-HT1A) [nM] | EC50 (r5-HT2C; [5]) [nM] | Emax (r5-HT2C) [%] | EC50 (r5-HT2A) [nM] | Emax (r5-HT2A) [%] | Ki (5-ht1e) [nM] | Ki (5-HT1B) [nM] | Ki (5-HT1D) [nM] | Ki (5-HT2A receptor [4]) [nM] | Ki (5-HT7; 5-HT7 affinity) [nM] | other results
1 | COc1ccc2[nH]cc(CCNCc3cccc(SC)c3)c2c1 [Compound 5l, N-(3-Methylthiobenzyl)-2-(5-methoxy-1H-indol-3-yl)ethan-1-amine] | 2.09 | 4.07 | 32 | 46.9 ± 0.8 | > 10000 | 9.7 | 60 ± 4 | 283 | 841 | 3.09 | 127 | 205 | 101 ± 2 | 120 | 32 ± 0.7 | > 10000 | > 10000 | 659 | 8.91 | 136 | Ki (human 5-HT2C receptor [2]): 13.2 nM
2 | COc1ccc2[nH]cc(CCNCc3cccc(Br)c3)c2c1 [Compound 5e, N-(3-Bromobenzyl)-2-(5-methoxy-1H-indol-3-yl)ethan-1-amine] | 5.62 | 3.55 | 13 | 73.8 ± 1.1 | > 10000 | 45 | 64 ± 8 | 321 | 612 | 1.48 | 155 | 422 | 112 ± 3 | 130 | 65.5 ± 0.8 | > 10000 | 6430 | 381 | 6.76 | 116 | Emax (h5-HT2B): 20 ± 2%; EC50 (h5-HT2B): 29 nM; Ki (5-HT2B; 5-HT2B affinity): 3.6 nM; max counts (Male C57BL/6J mice; HTR counts, SC): 14.2; ED50 (Male C57BL/6J mice; Mus musculus, sc, read-out: ED50 mg/kg (95% CI), mouse head twitch): 5.18 mg/kg; activity in the HTR assay (active / inactive) (Male C57BL/6J mice; SC, doses up to 30 mg/kg): active; magnitude of peak effect × vehicle (Male C57BL/6J mice; SC, mouse head twitch): 4.4 × vehicle; maximally effective dose (Male C57BL/6J mice; SC, mouse head twitch): 30 mg/kg; Ki (5-HT6; 5-HT6 pKi ± SEM): 45.7 nM; EC50 (r5-HT2C; r5-HT2C pEC50 ± SEM, Ca2+ mobilization): 417 nM; Ki (5-HT7; 5-HT7 pKi ± SEM): 117 nM
3 | COc1ccc2[nH]cc(CCNCc3cccc(C(F)(F)F)c3)c2c1 [Compound 5k, N-(3-Trifluoromethylbenzyl)-2-(5-methoxy-1H-indol-3-yl)ethan-1-amine] | 14.8 | 27.5 | 87 | 75.5 ± 1.2 | > 10000 | 87 | 75 ± 5 | 512 | 3090 | 2.95 | 240 | 162 | 104 ± 2 | 770 | 69.6 ± 1.4 | > 10000 | > 10000 | 278 | 28.2 | 262 | Emax (h5-HT2B): 51 ± 2%; EC50 (h5-HT2B): 107 nM; Ki (human 5-HT2C receptor [2]): 102 nM
